The text below walks through data of patent US20080234347A1, “METHOD FOR TREATING CB2 RECEPTOR MEDIATED PAIN” (priority 2007, published 2008).

One experiment has as its target T1, CB2 receptor (Rattus norvegicus, UniProt Q9QZN9).
T1 sequence (Q9QZN9 1-360): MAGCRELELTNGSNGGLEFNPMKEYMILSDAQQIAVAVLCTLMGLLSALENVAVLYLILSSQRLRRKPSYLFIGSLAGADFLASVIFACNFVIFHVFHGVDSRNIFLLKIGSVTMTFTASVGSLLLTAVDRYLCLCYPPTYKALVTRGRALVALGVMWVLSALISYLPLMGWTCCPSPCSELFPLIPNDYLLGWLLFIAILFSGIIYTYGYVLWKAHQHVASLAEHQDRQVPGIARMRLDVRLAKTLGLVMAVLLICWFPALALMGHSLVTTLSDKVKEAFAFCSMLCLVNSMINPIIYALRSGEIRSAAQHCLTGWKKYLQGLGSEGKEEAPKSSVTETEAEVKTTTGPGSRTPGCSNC
To be noted: background literature statement; cited from earlier work.

The test system of another experiment is Male CD-1 mice. Nature of the experiment: Hot-plate nociception test. To be noted: 30 min after dosing, 48° C. hot plate, cut-off 90 sec, ± SEM. In kind it is in vivo, mouse. From the text: The hot-plate test originally described by Eddy and Leimbach (J. Pharmacol. Exp. Ther. 107:385-393, 1953) with minor modifications (e.g., O'Callaghan and Holtzman, J. Pharmacol. Exp. Ther. 192: 497-505, 1975) was used to ascertain the analgesic potential of investigated compounds. The hot plate analgesia meter used for these studies was produced by Columbus Instruments International (Columbus, Ohio).
Male CD-1 mice (30-35 g) were weighed, placed in a plastic box with wood chips and allowed to acclimate before testing. An individual mouse was placed on a 48° C. heated surface and locomotion on the plate was constrained by a glass cylinder. The time interval between placement and a shaking, licking or tucking of either hind-paw (nociceptive response) was recorded as the Baseline measurement. Animals were removed from the heated plate immediately after responding or after a maximum of 40 sec to prevent tissue damage. Each mouse was tested only once.
One treatment group (9 animals each) was then injected i.p. with vehicle (5% DMSO and 5% Tween-80 in sterile saline). The other treatment groups (8 animals each) were injected i.p. with 10 or 30 mg/kg Compound I. Thirty minutes after test compound administration, each animal was assessed for a response with a maximum cut-off of 90 sec. […]

For experiment [1], the system named is male Sprague-Dawley rats. Nature of the experiment: Carrageenan model of inflammatory pain, radiant heat paw withdrawal, compound given before carrageenan (Example 1). Type of experiment: in vivo, rat. To be noted: 1 h before 1% carrageenan, mean ± SEM, cutoff 20 sec. The method, then:
Intraplantar injection of carrageenan (Cg) in a rodent produces pronounced hypersensitivity to both thermal and mechanical stimuli. The effects of carrageenan are maximal 2-4 hr after administration.
(§1) To assess the ability of test compounds to reverse thermal hyperalgesia, baseline response latencies on a radiant heat (RH) paw stimulator were obtained before an intraplantar injection of carrageenan-λ (200 μL) in male Sprague-Dawley rats (250-350 g in treatment groups of […] each). Only withdrawal responses that were quick hind paw movements (with or without licking of the hind paw) were recorded. Paw movements associated with locomotion or a shifting of weight were not considered a withdrawal response.
(§2) The weight of each animal was recorded on the day of the experiment. Each animal was placed on a warm (approx. body temperature, 30° C.) glass surface and allowed to acclimate to the test chamber for approximately 10-15 minutes. A radiant thermal stimulus (beam of light) was then focused on the sole of each hind paw in turn, and an initial (baseline) response time to thermal stimuli was recorded for each animal. The stimulus intensity (radiant heat at a setting of 5 Amps) that produced 10-15 sec baseline withdrawal latencies was used and a maximum cutoff of 20 sec was imposed. The light stimulus was automatically shut off by a photoelectric relay when the foot moved or when the cut-off time limit was reached.
One treatment group (8 animals each) was injected i.p. with vehicle (5% DMSO and 5% Tween-80 in sterile saline). The other treatment groups (8 animals each) were injected i.p. with 3, 10 or 30 mg/kg Compound 7.
One hour later, withdrawal latencies for the animals administered vehicle were recorded. After assessment, all animals were administered 1% carrageenan (200 μL in sterile saline) subcutaneously into the sub-plantar tissue of the left hind paw to stimulate an acute inflammatory reaction. Three hours later, the response time of the animals to the thermal stimulus was evaluated.

Experiment [2] has as its system male Sprague-Dawley rats. Nature of the experiment: Carrageenan model of inflammatory pain, radiant heat paw withdrawal, compound given after carrageenan (Example 2). In kind it is in vivo, rat. To be noted: read thirty minutes after compound, mean ± SEM. As for the experimental part:
as §1, §2
The experiment of Example 1 was repeated with the exception that animals were first administered 1% carrageenan (200 μL in sterile saline) subcutaneously into the sub-plantar tissue of the left hind paw to stimulate an acute inflammatory reaction.
Two and a half hours later, withdrawal latencies were assessed (‘post-Cg’). One treatment group (7 animals each) was then injected i.p. with vehicle (5% DMSO and 5% Tween-80 in sterile saline). The other treatment groups (8 animals each) were injected i.p. with 3, 10 or 30 mg/kg Compound 7. Thirty minutes after test compound administration withdrawal latencies were recorded.

For experiment [3], the system named is Rats (male Sprague Dawley). Nature of the experiment: Visceral hyperalgesia model, colorectal distension after zymosan colitis. To be noted: ± SEM. In kind it is in vivo, rat. The method, then: This protocol uses barostat-controlled, isobaric colorectal distensions (CRD) in rats to evaluate the potency and efficacy of test compounds in treating visceral hyperalgesia.
Rats (male Sprague Dawley (275-350 g; CD(SD); Charles River Labs) are housed 2 to 4 animals per cage in a temperature and humidity controlled room with a 12 hr/12 hr light/dark cycle, with ad libitum access to food and water.
One day after release from quarantine, the animals were acclimated to progressively longer (30 min and 4 hr later, 45 min) periods of simple restraint in plexiglas devices (G-3, rat ECU; Braintree Scientific; Braintree Mass.). The animals were returned to their home cages overnight. The next day they were acclimated in the restraint device for 60 min in the morning. 4 hrs later, the animals were lightly anesthetized with 70% CO2:30% O2. A highly compliant, 4 cm long polyethylene balloon, lubricated with K-Y Jelly was then inserted via the anus into the rectum and distal colon. The balloon was positioned such that the aboral end was 1 cm from the anus and was secured in place by taping the balloon catheter to the base of the tail. The catheter was connected to a computerized barostat that controlled the inflation of the balloon and the resulting colorectal distension. The balloon pressure, representing intracolonic pressure, was continuously recorded.
CRD in conscious animals elicits a reflex visceromotor response consisting of contraction of the anterior abdominal wall muscles (Ness T J and Gebhart G F, Colorectal distension as a noxious visceral stimulus: physiologic and pharmacologic characterization of pseudaffective reflexes in the rat, Brain Res., (1988), 450: 153-169). Contraction of these muscles increases intraabdominal pressure and subsequently increases intracolonic pressure. Changes in intracolonic pressure are transduced through the same balloon used to deliver the CRD. The manometric endpoint has recently been reported to mimic electromyographic responses recorded from anterior abdominal wall muscles in rats (Tammpere A, Brusberg M, Axenborg J, Hirsch I, Larsson H and Lindstrom E, Evaluation of pseudo-affective responses to noxious colorectal distension in rats by manometric recordings, Pain, (2005), 116: 220-226)
Stimulus-response data were obtained by delivering two series of 20 sec ramp (15, 30, 45, 60, 75 mmHg) distensions at four-minute intervals and recording the manometric response as follows: the intracolonic pressure signal is passed through a digital 1 Hz highpass filter, rectified and the integral of the initial 15 seconds of the CRD subjected to baseline subtraction (the 15 sec immediately preceding balloon distension); the responses at each distending pressure are averaged to obtain a control stimulus/response curve for each animal. The colorectal balloons were then removed and the animals were returned to their home cages.
The following morning, one treatment group (4 animals) was injected i.p. with 10 mg/kg Compound 7 (solubilized in 5% DMSO and 5% Tween-80 in sterile saline).
One hour later, an acute colitis was induced in all treatment groups by the intracolonic instillation of a 1.5 mL bolus of 2.5% (w/v) zymosan A (from Saccharomyces cerevisiae; Sigma Chemical Co., St. Louis) in 30% ethanol (under light 70% CO2:30% O2 anesthesia). Four hours later, the animals were lightly anesthetized and the colorectal balloons inserted as on the previous day for controlled distensions. The identical CRD stimuli was applied and manometric responses were recorded and analyzed as described for the control phase of the experiment.
The animals in one treatment group (4 animals) were then subcutaneously (s.c.) dosed with 1 mg/kg morphine. As a comparator for analgesic response, animals in another treatment group (9 animals) were dosed s.c. with 3 mg/kg morphine 4 hrs after colitis initiation and 30 min prior to CRD.

On to `CN1CCCCC1Cn1cc(C(=O)c2cc([N+](=O)[O-])ccc2I)c2ccccc21` (stereo not shown) [AM1241], for which the “antinociception to thermal stimuli” value at CB2 receptor is listed as “produces antinociception to thermal stimuli”.

With `O=C(N[C@H](CO)c1ccccc1)c1n[nH]c2c1CCCCC2Cc1cccc(Cl)c1` (stereo partly drawn) [Compound 1, 8-(3-chloro-benzyl)-1,4,5,6,7,8-hexahydro-cycloheptapyrazole-3-carboxylic acid [(1S)-2-hydroxy-1-phenyl-ethyl]-amide], the “% MPE (percent maximal effect)” value in the experiment with Male CD-1 mice (10 mg/kg i.p.) is 20.58 ± 9.27 % MPE; with Male CD-1 mice (30 mg/kg i.p.), 4.25 ± 10.65 % MPE.

In the case of `C[C@H](NS(=O)(=O)/C=C/c1n[nH]c2c1CCCC/C2=C\c1ccc(Cl)cc1)c1ccccc1` [Compound 7, (2E,8E)-2-[8-(4-chloro-benzylidene)-1,4,5,6,7,8-hexahydro-cycloheptapyrazol-3-yl]-ethenesulfonic acid [(1S)-1-phenyl-ethyl]-amide], the “withdrawal latency to radiant thermal stimulus, 3 hrs post Cg administration” value with male Sprague-Dawley rats [1] (3 mg/kg i.p.) is 8.44 ± 1.88 s; in the experiment on male Sprague-Dawley rats [1] (10 mg/kg i.p.), 7.87 ± 1.01 s; in the experiment on male Sprague-Dawley rats [1] (30 mg/kg i.p.), 6.05 ± 0.83 s. For the same compound, the results for the “withdrawal latency to radiant thermal stimulus, 0.5 hrs post Cg” value in the experiment with male Sprague-Dawley rats [2] (3 mg/kg i.p. given 2.5 h after carrageenan), in the experiment on male Sprague-Dawley rats [2] (10 mg/kg i.p. given 2.5 h after carrageenan) and in the experiment on male Sprague-Dawley rats [2] (30 mg/kg i.p. given 2.5 h after carrageenan) were 5.30 ± 0.48 s, 5.33 ± 0.48 s and 4.53 ± 0.39 s, respectively. Further, the “manometric response, percent of initial (control) response” value in experiment [3] (15 mmHg distension, 10 mg/kg i.p. 1 h before zymosan colitis, n = 4) is reported as 245.7 ± 87.76%; in experiment [3] (30 mmHg distension, 10 mg/kg i.p. 1 h before zymosan colitis, n = 4), 527.2 ± 196.8%; in experiment [3] (45 mmHg distension, 10 mg/kg i.p. 1 h before zymosan colitis, n = 4) it was 301.3 ± 104.2%; in experiment [3] (60 mmHg distension, 10 mg/kg i.p. 1 h before zymosan colitis, n = 4), 243.7 ± 66.53%; in experiment [3] (75 mmHg distension, 10 mg/kg i.p. 1 h before zymosan colitis, n = 4) it was 230.9 ± 51.95%.

Turning to `CN1CC[C@]23c4c5ccc(O)c4O[C@H]2[C@@H](O)C=C[C@H]3[C@H]1C5` [Morphine, morphine, reference compound], the “manometric response, percent of initial (control) response” value in experiment [3] (15 mmHg distension, morphine 3 mg/kg s.c. 4 hrs after colitis initiation, 30 min prior to CRD, n = 9) is given as 96.34 ± 12.53%; in experiment [3] (30 mmHg distension, morphine 3 mg/kg s.c. 4 hrs after colitis initiation, 30 min prior to CRD, n = 9), 69.96 ± 11.21%; in experiment [3] (45 mmHg distension, morphine 3 mg/kg s.c. 4 hrs after colitis initiation, 30 min prior to CRD, n = 9) it was 61.69 ± 8.72%; in experiment [3] (60 mmHg distension, morphine 3 mg/kg s.c. 4 hrs after colitis initiation, 30 min prior to CRD, n = 9), 56.33 ± 8.23%; in experiment [3] (75 mmHg distension, morphine 3 mg/kg s.c. 4 hrs after colitis initiation, 30 min prior to CRD, n = 9), 63.18 ± 9.19%.
